Values of other authors in US20230049319A1, “CANNABINOID-COMPRISING COSMETIC COMPOSITIONS” (THIS WORKS PRODUCTS LIMITED, priority 2020, published 2023).

Columns and labels:
[1] = test system: chronic inflammation and pain; settings: mice and rats
[2] = in vivo
[3] = test system: anxiety; settings: in vivo

Structure (SMILES)	reducing anxiety, compared with trazodone hydrochloride [3]	further results
C=C(C)[C@@H]1CCC(C)=C[C@H]1c1c(O)cc(CCCCC)cc1O [CBD, cannabidiol]	–	chronic inflammation and pain [1]: substantially reduce
C=CC(C)(O)CCC=C(C)C (stereo not shown) [Linalool]	–	dose shown to be safe [2]: ≤ 120 mg
C=C[C@](C)(O)CCC=C(C)C [R-(−)-linalool]	as effective as the trazodone hydrochloride	–
C=C[C@@](C)(O)CCC=C(C)C [S-(+)-linalool]	as effective as the trazodone hydrochloride	–
